Source: patent EP0878193A1, “REMEDIES FOR HERPESVIRUS INFECTION CAUSED BY HERPESVIRUS AND PREVENTIVES FOR RECURRENCE OF THE INFECTION BOTH CONTAINING TRITERPENE DERIVATIVES AS THE ACTIVE INGREDIENT” (Showa Shell Sekiyu K.K., priority 1996, dated 1997)
In brackets after ≈: the same amount, converted by molar mass.

How the values were obtained:
Vero cells = experiment: cytotoxicity (observation, no method given); settings: at the concentration by which it showed anti-herpesvirus activity
[1] = system: HSV-1, AP^r1, TK^-, HSV-2; experiment: viral growth inhibition activity, plaque forming unit (PFU/mℓ) as index, 24 hours culture; assay type: cell-based, herpes simplex virus; settings: 5, 10 or 20 µg/mℓ compared with the control (water); also drug-resistant strains AP^r and TK^-; Table 2 is an image
Procedure: Next, the viral growth inhibition activity was measured in the following manner making use of a plaque forming unit (PFU/mℓ) as an index. That is, each of the above-described viral strains was adsorbed to Vero cells which have been cultured into monolayer in a plastic dish of 60 mm in diameter, and the resulting cells were supplemented with 2% fetal bovine serum-added MEM medium (3 mℓ) and 3-oxo-olean-18-en-28-oic acid solution (1 mℓ) having varied concentration and cultured at 37°C for 24 hours. After 24 hours, the thus infected cells were subjected to three times of freezing-thawing and then to centrifugation (3,000 rpm, 15 minutes), and the resulting supernatant fluid was used as a virus solution to count the number of infectious viruses by the above-described plaque formation test and to calculate the plaque forming unit (PFU/mℓ) based on the counts.

HSV-1 = experiment: amount of virus in skin and brain of mice infected with HSV-1 (plaque assay of tissue homogenates); assay type: in vivo; settings: for Skin/brain (ratio): ratio of the percentages of skin and brain
Procedure: Next, effects of 3-oxo-olean-18-en-28-oic acid (moronic acid) against a virus in the animal body were examined by infecting skin cell tissues of mice with the viral strain HSV-1 and measuring the amount of the virus particles remained in the affected part of the skin and those migrated from the skin into intracerebral nerve cells 2, 3, 4 and 6 days after the infection, when a control (water only) or a varied amount of 3-oxo-olean-18-en-28-oic acid (moronic acid) was administered to the mice. In each of the experiments 1 and 2, three mice were used in one group and the average number of virus particles obtained from each mouse was used as the amount of virus. The amount of virus was measured by cutting off an area of 1 cm^2 around the affected part in the case of the skin or using the entire brain portion in the case of the brain. Each of the tissue samples was mixed with 2 mℓ of physiological saline and homogenated, the supernatant fluid obtained therefrom was used as a virus test solution to carry out a plaque assay (plaque measuring method) using cultured Vero cells, and the number of plaques thus counted was used as the amount of virus. The skin/brain ratio is a value calculated as the ratio of respective percentages obtained from the skin and the brain.
With regard to the numeral in ( ) such as (100%), (65.4%) or the like shown in the item of the amount of virus, the amount of virus in the control was defined as 100% and shown as (100%), the ratio of residual virus particles when 10 mg/kg of moronic acid was administered was 65.4% so that it was shown as (65.4%), and other numerals in ( ) under respective data were shown in the same manner.

TK^- = experiment: plaque formation test (antiviral activity, CPE as index) on Vero cells; assay type: cell-based, TK deficiency herpes simplex virus type 1 (strain B 2006); settings: Human alphaherpesvirus 1, Vero, read-out: EC50 (µg/mℓ) (average ± standard deviation)
Excerpt: (§1) In order to examine antiviral activity, herpes simplex virus type 1 (strain 7401 H) (referred sometimes to as "HSV-1" hereinafter), TK deficiency herpes simplex virus type 1 (strain B 2006) (referred sometimes to as "TK^-" hereinafter), phosphono acetic acid (referred to as "PAA" hereinafter) resistant herpes simplex virus type 1 (PAA resistant strain derived from 7401 H) (referred sometimes to as "AP^r1" hereinafter) and herpes simplex virus type 2 (strain Ito 1262) (referred sometimes to as "HSV-2" hereinafter) were used as viruses. […]
(§2) That is, the above-described virus solution was diluted to a concentration of 100 plaques/0.2 mℓ, the thus diluted virus solution (0.2 mℓ) was inoculated into Vero cells which have been cultured into monolayer in a plastic dish of 60 mm in diameter, and the mixture was incubated at 37°C for 1 hour to effect adsorption of viruses to the Vero cells. After the adsorption, 2% fetal bovine serum-added MEM medium (5 mℓ) containing each drug solution to be measured having varied drug concentration and 0.8% methyl cellulose was overlaid on the just described virus-adsorbed monolayer Vero cells which were subsequently cultured at 37°C for 2 to 5 days to effect plaque formation. […] The number of plaques was counted under a stereoscopic microscope. […]

HSV-2 = experiment: as above; assay type: cell-based, herpes simplex virus type 2 (strain Ito 1262); settings: Human alphaherpesvirus 2, Vero, 50% plaque formation inhibition concentration; HSV-2 on Vero cells; three experiments; read-out: EC50 (µg/mℓ) (average ± standard deviation)
Excerpt: as §1, §2

[2] = Exp. 1, 2 days after infection, 10 mg/kg
[3] = Exp. 1, 4 days after infection, 1 mg/kg
[4] = Exp. 1, 4 days after infection, 10 mg/kg
[5] = Exp. 1, 6 days after infection, 1 mg/kg
[6] = Exp. 1, 6 days after infection, 10 mg/kg
[7] = Exp. 2, 3 days after infection, 1 mg/kg
[8] = Exp. 2, 3 days after infection, 5 mg/kg
[9] = Exp. 2, 6 days after infection, 1 mg/kg
[10] = Exp. 2, 6 days after infection, 5 mg/kg

CC1(C)C=C2[C@H]3CC[C@@H]4[C@@]5(C)CCC(=O)C(C)(C)[C@@H]5CC[C@@]4(C)[C@]3(C)CC[C@@]2(C(=O)O)CC1 [Moronic acid, 3-oxo-olean-18-en-28-oic acid]
cytotoxicity (Vero cells): not observed | ratio of plaques formed by each viral strain [1]: decreases | Amount of virus (average ± standard deviation, PFU/organ) Skin (HSV-1; [2]): 4.9 ± 0.0 (log10 PFU)/cm^2 | Amount of virus Skin, relative to control defined as 100% (HSV-1; [2]): 91.2% | Amount of virus (average ± standard deviation, PFU/organ) Brain (HSV-1; [3]): < 2.4 ± 0.0 (log10 PFU)/total | Amount of virus (average ± standard deviation, PFU/organ) Skin (HSV-1; [3]): 6.1 ± 0.4 (log10 PFU)/cm^2 | Amount of virus Brain, relative to control defined as 100% (HSV-1; [3]): < 83.9% | Amount of virus Skin, relative to control defined as 100% (HSV-1; [3]): 93.5% | Skin/brain (ratio) (HSV-1; [3]): >1.12 | Amount of virus (average ± standard deviation, PFU/organ) Brain (HSV-1; [4]): < 2.40 ± 0.0 (log10 PFU)/total | Amount of virus (average ± standard deviation, PFU/organ) Skin (HSV-1; [4]): 6.3 ± 0.3 (log10 PFU)/cm^2 | Amount of virus Brain, relative to control defined as 100% (HSV-1; [4]): < 83.9% | Amount of virus Skin, relative to control defined as 100% (HSV-1; [4]): 96.3% | Skin/brain (ratio) (HSV-1; [4]): >1.15 | Amount of virus (average ± standard deviation, PFU/organ) Brain (HSV-1; [5]): 3.5 ± 0.4 (log10 PFU)/total | Amount of virus (average ± standard deviation, PFU/organ) Skin (HSV-1; [5]): 6.1 ± 0.2 (log10 PFU)/cm^2 | Amount of virus Brain, relative to control defined as 100% (HSV-1; [5]): 85.6% | Amount of virus Skin, relative to control defined as 100% (HSV-1; [5]): 95.3% | Skin/brain (ratio) (HSV-1; [5]): 1.12 | Amount of virus (average ± standard deviation, PFU/organ) Brain (HSV-1; [6]): 2.3 ± 0.3 (log10 PFU)/total | Amount of virus (average ± standard deviation, PFU/organ) Skin (HSV-1; [6]): 6.0 ± 0.1 (log10 PFU)/cm^2 | Amount of virus Brain, relative to control defined as 100% (HSV-1; [6]): 57.0% | Amount of virus Skin, relative to control defined as 100% (HSV-1; [6]): 94.2% | Skin/brain (ratio) (HSV-1; [6]): 1.674 | Amount of virus (average ± standard deviation, PFU/organ) Skin (HSV-1; [7]): 5.5 ± 0.4 (log10 PFU)/cm^2 | Amount of virus Skin, relative to control defined as 100% (HSV-1; [7]): 98.2% | Amount of virus (average ± standard deviation, PFU/organ) Skin (HSV-1; [8]): 5.1 ± 0.4 (log10 PFU)/cm^2 | Amount of virus Skin, relative to control defined as 100% (HSV-1; [8]): 91.5% | Amount of virus (average ± standard deviation, PFU/organ) Brain (HSV-1; [9]): 3.0 ± 0.6 (log10 PFU)/total | Amount of virus (average ± standard deviation, PFU/organ) Skin (HSV-1; [9]): 4.8 ± 0.7 (log10 PFU)/cm^2 | Amount of virus Brain, relative to control defined as 100% (HSV-1; [9]): 80.7% | Amount of virus Skin, relative to control defined as 100% (HSV-1; [9]): 93.9% | Skin/brain (ratio) (HSV-1; [9]): 1.16 | Amount of virus (average ± standard deviation, PFU/organ) Brain (HSV-1; [10]): 2.7 ± 0.3 (log10 PFU)/total | Amount of virus (average ± standard deviation, PFU/organ) Skin (HSV-1; [10]): 5.6 ± 0.2 (log10 PFU)/cm^2 | Amount of virus Brain, relative to control defined as 100% (HSV-1; [10]): 72.2% | Amount of virus Skin, relative to control defined as 100% (HSV-1; [10]): 109.0% | Skin/brain (ratio) (HSV-1; [10]): 31.9 | EC50 (TK^-): 2 ± 0.4 µg/mL (≈ 4.4 µM) | EC50 (HSV-2): 5.8 ± 0.5 µg/mL (≈ 12.8 µM)
